In article PMC6801562, “PIEZO1 and TRPV4, which Are Distinct Mechano-Sensors in the Osteoblastic MC3T3-E1 Cells, Modify Cell-Proliferation” (International Journal of Molecular Sciences, 2019):

Assays:
[1] = target: T1, mouse PIEZO1 (mPIEZO1; HEK-mPiezo1) (Mus musculus, UniProt E2JF22); experiment: Fura-2 Ca2+ imaging, HEK cells, Hill fit; type: cell-based
T1 construct: mouse Piezo1 (Addgene) in pcDNA3.1 / pIRES2-AcGFP1, transiently transfected in HEK 293 cells; low endogenous human PIEZO1 in host

[2] = target: T2, TRPV4 (MC3T3-E1 cells) (Mus musculus, UniProt Q9EPK8); experiment: Fura-2 Ca2+ imaging, MC3T3-E1 cells, Hill fit; type: cell-based; conditions: agonist; native cells; pH 7.4, 2.2 mM Ca2+, n = 7
T2 construct: native full-length channel in mouse osteoblastic MC3T3-E1 cells (Riken Cell Bank); identity supported by siTRPV4 knockdown
T2 sequence (Q9EPK8 whole entry): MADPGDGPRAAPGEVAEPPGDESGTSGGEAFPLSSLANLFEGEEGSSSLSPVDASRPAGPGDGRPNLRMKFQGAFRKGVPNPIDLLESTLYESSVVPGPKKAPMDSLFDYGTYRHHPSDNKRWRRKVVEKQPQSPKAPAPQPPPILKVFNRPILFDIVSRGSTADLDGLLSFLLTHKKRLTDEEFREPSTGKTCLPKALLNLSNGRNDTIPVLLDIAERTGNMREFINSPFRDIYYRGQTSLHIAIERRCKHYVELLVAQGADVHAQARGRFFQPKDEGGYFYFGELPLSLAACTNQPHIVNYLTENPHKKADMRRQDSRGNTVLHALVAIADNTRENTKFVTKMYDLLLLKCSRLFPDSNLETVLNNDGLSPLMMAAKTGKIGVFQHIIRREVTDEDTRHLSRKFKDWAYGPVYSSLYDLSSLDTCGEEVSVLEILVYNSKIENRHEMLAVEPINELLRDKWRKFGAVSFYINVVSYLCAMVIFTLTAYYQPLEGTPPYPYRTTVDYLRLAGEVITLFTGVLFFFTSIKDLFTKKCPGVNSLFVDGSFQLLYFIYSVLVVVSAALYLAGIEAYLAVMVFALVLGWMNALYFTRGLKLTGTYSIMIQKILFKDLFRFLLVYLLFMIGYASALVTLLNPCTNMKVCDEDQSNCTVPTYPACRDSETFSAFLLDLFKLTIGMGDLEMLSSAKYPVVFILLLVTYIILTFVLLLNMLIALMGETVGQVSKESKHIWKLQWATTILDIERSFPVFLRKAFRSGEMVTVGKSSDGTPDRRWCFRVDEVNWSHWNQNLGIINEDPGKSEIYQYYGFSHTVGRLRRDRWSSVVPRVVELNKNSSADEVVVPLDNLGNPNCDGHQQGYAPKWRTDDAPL

T1 sequence (E2JF22 whole entry): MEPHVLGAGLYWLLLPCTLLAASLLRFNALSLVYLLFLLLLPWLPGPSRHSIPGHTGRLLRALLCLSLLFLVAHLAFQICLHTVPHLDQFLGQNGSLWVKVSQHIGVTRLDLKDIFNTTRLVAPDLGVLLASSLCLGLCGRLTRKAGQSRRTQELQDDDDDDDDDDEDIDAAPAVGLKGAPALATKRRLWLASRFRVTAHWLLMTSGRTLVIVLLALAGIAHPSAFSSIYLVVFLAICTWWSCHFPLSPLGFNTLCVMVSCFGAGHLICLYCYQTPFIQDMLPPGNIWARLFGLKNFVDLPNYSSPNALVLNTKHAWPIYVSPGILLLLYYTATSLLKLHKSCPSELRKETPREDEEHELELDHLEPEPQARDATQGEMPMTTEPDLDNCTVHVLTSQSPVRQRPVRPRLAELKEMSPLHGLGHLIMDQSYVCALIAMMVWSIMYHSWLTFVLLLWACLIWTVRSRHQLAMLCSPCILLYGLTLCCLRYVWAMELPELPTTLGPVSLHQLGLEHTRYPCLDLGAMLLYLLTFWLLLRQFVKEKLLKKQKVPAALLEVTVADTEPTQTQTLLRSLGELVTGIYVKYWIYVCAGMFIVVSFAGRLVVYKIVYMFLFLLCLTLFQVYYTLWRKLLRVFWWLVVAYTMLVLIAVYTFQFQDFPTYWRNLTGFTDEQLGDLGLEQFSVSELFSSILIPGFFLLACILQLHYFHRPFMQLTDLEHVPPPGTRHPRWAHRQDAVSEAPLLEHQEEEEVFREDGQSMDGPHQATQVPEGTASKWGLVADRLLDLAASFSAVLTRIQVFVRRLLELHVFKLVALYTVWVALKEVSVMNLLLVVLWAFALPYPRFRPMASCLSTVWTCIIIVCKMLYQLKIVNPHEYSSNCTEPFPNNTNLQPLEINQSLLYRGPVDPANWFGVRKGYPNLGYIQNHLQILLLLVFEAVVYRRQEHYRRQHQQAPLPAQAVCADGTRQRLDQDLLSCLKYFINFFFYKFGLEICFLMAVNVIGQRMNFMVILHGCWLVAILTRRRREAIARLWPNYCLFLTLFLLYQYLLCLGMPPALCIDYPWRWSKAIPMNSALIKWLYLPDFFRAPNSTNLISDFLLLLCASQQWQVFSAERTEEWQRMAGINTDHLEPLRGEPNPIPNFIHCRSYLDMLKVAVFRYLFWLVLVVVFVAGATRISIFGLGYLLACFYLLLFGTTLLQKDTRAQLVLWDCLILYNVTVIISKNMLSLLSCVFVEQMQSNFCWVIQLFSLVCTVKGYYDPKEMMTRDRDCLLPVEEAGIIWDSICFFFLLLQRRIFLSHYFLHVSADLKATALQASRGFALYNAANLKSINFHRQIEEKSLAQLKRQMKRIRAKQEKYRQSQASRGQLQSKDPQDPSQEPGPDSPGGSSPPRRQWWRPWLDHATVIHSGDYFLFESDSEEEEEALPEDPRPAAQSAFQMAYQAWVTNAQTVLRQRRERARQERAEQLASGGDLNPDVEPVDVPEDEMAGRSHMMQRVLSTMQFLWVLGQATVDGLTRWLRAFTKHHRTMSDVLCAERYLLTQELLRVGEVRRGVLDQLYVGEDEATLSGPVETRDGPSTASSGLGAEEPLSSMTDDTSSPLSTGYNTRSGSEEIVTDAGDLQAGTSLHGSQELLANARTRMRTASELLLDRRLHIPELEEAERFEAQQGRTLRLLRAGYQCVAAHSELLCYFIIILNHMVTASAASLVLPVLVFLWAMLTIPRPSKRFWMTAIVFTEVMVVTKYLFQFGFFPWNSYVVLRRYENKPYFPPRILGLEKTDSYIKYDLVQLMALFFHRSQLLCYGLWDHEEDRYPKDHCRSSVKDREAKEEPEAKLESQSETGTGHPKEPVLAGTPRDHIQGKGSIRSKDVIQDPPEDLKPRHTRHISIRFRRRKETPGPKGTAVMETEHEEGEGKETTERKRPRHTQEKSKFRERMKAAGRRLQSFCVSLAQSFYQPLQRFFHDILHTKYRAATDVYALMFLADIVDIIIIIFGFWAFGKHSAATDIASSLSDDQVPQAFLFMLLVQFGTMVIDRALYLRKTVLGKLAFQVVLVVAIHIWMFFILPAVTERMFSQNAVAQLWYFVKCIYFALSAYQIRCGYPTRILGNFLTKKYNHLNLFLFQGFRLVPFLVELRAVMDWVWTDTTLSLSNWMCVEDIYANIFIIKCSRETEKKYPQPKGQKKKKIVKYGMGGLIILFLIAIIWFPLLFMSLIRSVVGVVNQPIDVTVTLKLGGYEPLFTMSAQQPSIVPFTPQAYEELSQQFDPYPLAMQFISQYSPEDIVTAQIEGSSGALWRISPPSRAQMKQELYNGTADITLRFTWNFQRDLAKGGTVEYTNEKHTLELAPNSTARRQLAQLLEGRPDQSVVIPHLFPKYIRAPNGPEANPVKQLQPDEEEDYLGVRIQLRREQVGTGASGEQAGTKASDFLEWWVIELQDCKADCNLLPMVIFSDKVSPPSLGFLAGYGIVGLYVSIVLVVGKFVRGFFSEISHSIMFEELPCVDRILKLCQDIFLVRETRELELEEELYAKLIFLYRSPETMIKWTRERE

| EC50 [1] | EC50 [2] | Compound |
| --- | --- | --- |
| 380 ± 70 nM | – | Clc1cccc(Cl)c1CSc1nnc(-c2cnccn2)s1 [Yoda1, 2-[5-[[(2,6-Dichlorophenyl)methyl]thio]-1,3,4-thiadiazol-2-yl]-pyrazine] |
| – | 2.25 ± 0.45 nM | CC(C)C[C@H](NC(=O)c1cc2ccccc2s1)C(=O)N1CCN(C(=O)[C@H](CO)NS(=O)(=O)c2ccc(Cl)cc2Cl)CC1 [GSK1016790A] |
